What was measured:
CT DNA [1] = assay: CT DNA binding by UV-vis spectroscopy titration; parameters: species or system calf; settings: on addition of CT DNA; for Δλ (nm) shift of λmax: + red shift, − blue shift
EB–DNA adduct (CT DNA) = assay: EB displacement from EB–DNA adduct by fluorescence emission spectroscopy; format: binding, calf; settings: for Stern–Volmer constant KSV (EB–DNA) / EB–DNA fluorescence quenching ΔI/Io (%): [EB] = 40 μM, [DNA] = 45 μM; for EB–DNA fluorescence quenching ΔI/Io (%): λexcitation 540 nm; for relative EB–DNA fluorescence intensity (I/Io, %) remaining: λemission = 592 nm, lowest value reached, % of the initial EB–DNA fluorescence; for quenching constant kq of the EB–DNA fluorescence: τo = 23 ns
[2] = Solubility of the complexes; format: physicochemical
[3] = molecular target: bovine serum albumin (BSA) (Bos taurus, UniProt P02769); assay: BSA tryptophan fluorescence quenching; settings: for BSA binding constant Κ(BSA): Scatchard equation, BSA 3 μM; for relative BSA fluorescence emission intensity (I/Io, %) remaining: λem,max = 345 nm, lowest value reached, % of the initial BSA fluorescence
[4] = molecular target: human serum albumin (HSA) (Homo sapiens, UniProt P02768); settings: for HSA binding constant Κ(HSA): Scatchard equation, HSA 3 μM; for relative HSA fluorescence emission intensity (I/Io %) remaining: λem,max = 340 nm, lowest value reached, % of the initial HSA fluorescence
[5] = ABTS radical scavenging assay; settings: compound 0.1 mM in DMSO; absorbance at 734 nm 1 min after mixing
CT DNA [6] = settings: classic intercalator; cited from earlier work
[7] = first band listed in the cell, + hyperchromism, − hypochromism

bovine serum albumin (BSA), sequence (P02769 25-607): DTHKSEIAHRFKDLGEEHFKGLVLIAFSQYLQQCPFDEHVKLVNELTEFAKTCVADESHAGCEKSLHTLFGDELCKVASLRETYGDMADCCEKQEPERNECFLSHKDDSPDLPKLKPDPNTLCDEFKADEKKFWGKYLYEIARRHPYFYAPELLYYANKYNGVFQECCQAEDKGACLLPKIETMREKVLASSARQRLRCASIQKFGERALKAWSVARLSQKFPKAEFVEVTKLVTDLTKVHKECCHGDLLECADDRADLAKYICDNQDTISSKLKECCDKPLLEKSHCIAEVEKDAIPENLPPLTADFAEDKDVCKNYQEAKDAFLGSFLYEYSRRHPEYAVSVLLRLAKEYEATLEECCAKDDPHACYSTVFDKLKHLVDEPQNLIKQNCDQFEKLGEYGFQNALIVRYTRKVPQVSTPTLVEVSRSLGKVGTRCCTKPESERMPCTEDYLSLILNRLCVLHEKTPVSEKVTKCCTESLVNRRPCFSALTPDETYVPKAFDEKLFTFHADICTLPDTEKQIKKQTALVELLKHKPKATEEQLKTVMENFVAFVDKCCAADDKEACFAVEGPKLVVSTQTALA
human serum albumin (HSA), sequence (P02768 25-609): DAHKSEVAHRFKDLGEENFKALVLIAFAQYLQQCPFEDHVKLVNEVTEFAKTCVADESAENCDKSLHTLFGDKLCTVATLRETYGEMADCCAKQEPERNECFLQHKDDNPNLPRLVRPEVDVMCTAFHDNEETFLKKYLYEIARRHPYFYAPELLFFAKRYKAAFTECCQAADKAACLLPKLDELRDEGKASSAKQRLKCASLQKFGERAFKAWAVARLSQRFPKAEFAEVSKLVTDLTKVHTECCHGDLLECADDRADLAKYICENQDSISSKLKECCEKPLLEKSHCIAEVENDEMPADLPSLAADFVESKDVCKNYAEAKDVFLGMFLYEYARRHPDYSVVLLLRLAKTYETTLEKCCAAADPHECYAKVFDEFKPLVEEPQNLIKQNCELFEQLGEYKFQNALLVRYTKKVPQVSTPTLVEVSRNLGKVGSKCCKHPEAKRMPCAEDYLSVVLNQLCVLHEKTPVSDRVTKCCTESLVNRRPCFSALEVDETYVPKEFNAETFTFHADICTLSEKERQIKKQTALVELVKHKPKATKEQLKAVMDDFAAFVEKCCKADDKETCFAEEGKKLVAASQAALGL

SMILES | ΔA/A0 (%) hyper-/hypo-chromism of UV band (CT DNA [1]; [7]) | Δλ (nm) shift of λmax (CT DNA [1]; first band listed in the cell) | Stern–Volmer constant KSV (EB–DNA) (EB–DNA adduct (CT DNA)) | EB–DNA fluorescence quenching ΔI/Io (%) (EB–DNA adduct (CT DNA)) | relative EB–DNA fluorescence intensity (I/Io, %) remaining (EB–DNA adduct (CT DNA)) [%] | quenching constant kq of the EB–DNA fluorescence (EB–DNA adduct (CT DNA)) | solubility [2] | BSA binding constant Κ(BSA) [3] | relative BSA fluorescence emission intensity (I/Io, %) remaining [3] [%] | HSA binding constant Κ(HSA) [4] | relative HSA fluorescence emission intensity (I/Io %) remaining [4] [%] | % ABTS radical scavenging activity (ABTS%) [5] [%] | ΔA/A0 (%) hyper-/hypo-chromism of UV band (CT DNA [1]; second band listed in the cell, <−50 = intense hypochromism) | BSA quenching constant kq(BSA) [3] | DNA binding constant Kb (CT DNA [6])
Cc1ccc(Cl)c(Nc2ccccc2C(=O)[O-])c1Cl.Cc1ccc(Cl)c(Nc2ccccc2C(=O)[O-])c1Cl.O.O.[Mn+2].c1ccncc1.c1ccncc1.c1ccncc1.c1ccncc1 [Complex 1, [Μn(meclf–O)2(py)2(H2O)2]∙2py] | +10% | −2 nm | 1.15 (±0.17) × 10^5 M^–1 | 53.0 | 47.0 | 4.99 (±0.15) × 10^12 M^–1s^–1 | soluble in DMSO and DMF | 9.58 (±0.07) × 10^5 M^–1 | 11.8 | 8.83 (±0.24) × 10^5 M^–1 | 21.8 | 39.18 ± 3.27 | – | – | –
CO.CO.Cc1ccc(Cl)c(Nc2ccccc2C(=O)[O-])c1Cl.Cc1ccc(Cl)c(Nc2ccccc2C(=O)[O-])c1Cl.[Mn+2].c1cnc2c(c1)ccc1cccnc12 [Complex 3, [Μn(meclf–O)2(phen)(MeOH)2]] | −6% | +2 nm | 1.18 (±0.32) × 10^6 M^–1 | 79.6 | 20.4 | 5.15 (±0.14) × 10^13 M^–1s^–1 | soluble in DMSO, and DMF | 2.71 (±0.16) × 10^6 M^–1 | 8.0 | 8.73 (±0.06) × 10^5 M^–1 | 17.0 | 18.66 ± 0.71 | – | – | –
CO.CO.Cc1ccc(Cl)c(Nc2ccccc2C(=O)[O-])c1Cl.Cc1ccc(Cl)c(Nc2ccccc2C(=O)[O-])c1Cl.[Mn+2].c1ccc(-c2ccccn2)nc1 [Complex 4, [Mn(meclf–O)2(bipy)(MeOH)2]] | +15% | – | 1.54 (±0.31) × 10^5 M^–1 | 44.8 | – | 6.69 (±0.13) × 10^12 M^–1s^–1 | – | 9.61 (±0.06) × 10^5 M^–1 | – | 9.38 (±0.29) × 10^5 M^–1 | – | 98.69 ± 0.06 | +9% | 1.76 (±0.11) × 10^14 M^–1s^–1 | –
CC[n+]1c(-c2ccccc2)c2cc(N)ccc2c2ccc(N)cc21.[Br-] [EB, 3,8–diamino–5–ethyl–6–phenyl–phenanthridinium bromide] | – | – | – | – | – | – | – | – | – | – | – | – | – | – | 1.23 (±0.07) × 10^5 M^−1
Cc1c(C)c2c(c(C)c1O)CCC(C)(C(=O)O)O2 (centres unmarked) [Trolox, 6–Hydroxy–2,5,7,8–tetramethylchromane–2–carboxylic acid, reference compound] | – | – | – | – | – | – | – | – | – | – | – | 91.8 ± 0.17 | – | – | –

Reference: paper PMC11676910, “Manganese(II) Complexes with Non-Steroidal Anti-Inflammatory Drugs: Structure and Biological Activity” (International Journal of Molecular Sciences, 2024)
